{
  "source": "patent US20150267232A1",
  "about": "“IN VIVO AND IN VITRO CARBENE INSERTION AND NITRENE TRANSFER REACTIONS CATALYZED BY HEME ENZYMES” (California Institute of Technology, priority 2012, published 2015)",
  "key": {"[1]": {"experiment": "P450/hemin reactions with azide 5 under anaerobic conditions (C—H amination)", "format": "biochemical", "description": "Benzosultam 6, arylsulfonamide 7 (*), and dimer 12 (#) are defined in FIG. 10. […] For instance, B1SYN (e.g., P450BM3 with 23 amino acid substitutions) catalyzed over 30 TTN for form the benzosultam.\nSmall-Scale Amination Reactions Under Anaerobic Conditions. […]"}, "[2]": {"experiment": "Intramolecular carbene C—H insertion, substrate 4.1a", "format": "biochemical"}, "[3]": {"experiment": "P450/hemin reactions with azide 8 under anaerobic conditions (C—H amination)", "format": "biochemical", "description": "Benzosultam 9 (a), arylsulfonamide 13 (c), alcohol 14 (b), alkene 15 and dimer 16 (d) are defined in FIG. 13. […] B1SYN (e.g., P450BM3 with 23 amino acid substitutions) catalyzed about 45 TTN for form the benzosultam.\nSmall-Scale Amination Reactions Under Anaerobic Conditions.\nReaction conditions were as described herein and analyzed by reverse-phase LC-MS (Agilent 1100 series LC-MSD), acetonitrile-water, using a C18 column (Peeke Scientific, Kromasil 100 5 μm, 50×4.6 mm ID). Acetonitrile gradient for 2-isopropylbenzenesulfonyl azide reactions: 10-22% (8 min), 22-60% (10 min), 60% (2 min), at 1.5 mL min^−1. Retention times: alcohol 10 (6.3 min), sulfonamide 2 (10.6 min), dimer 4 (12.3 min), azide 1 (17.6 min)."}, "[4]": {"experiment": "Whole-cell C—H amination of azide 1", "format": "cell-based, E. coli BL21(DE3)", "details": "lyophilized cells"}, "[5]": {"details": "cat. loading 1 mol %, reductant None"}},
  "data": [
    {"molecule": "hemin", "values": [
      {"measurement": "TTN arylsulfonamide 7", "setting": "[1]; 1 mol %, 2 mM NADPH", "value": 1},
      {"measurement": "TTN benzosultam 6", "setting": "[1]; 1 mol %, 2 mM NADPH", "value": 0},
      {"measurement": "arylsulfonamide 7 (% yield)", "setting": "[1]; 1 mol %, 2 mM NADPH", "value": "(1) %"},
      {"measurement": "TTN arylsulfonamide 7", "setting": "[1]; 1 mol %, 2 mM Na2S2O4", "value": 5},
      {"measurement": "TTN benzosultam 6", "setting": "[1]; 1 mol %, 2 mM Na2S2O4", "value": 0},
      {"measurement": "arylsulfonamide 7 (% yield)", "setting": "[1]; 1 mol %, 2 mM Na2S2O4", "value": "(5) %"},
      {"measurement": "TTN arylsulfonamide 7", "setting": "[1]; 1 mol %, 10 mM Na2S2O4", "value": 58},
      {"measurement": "TTN benzosultam 6", "setting": "[1]; 1 mol %, 10 mM Na2S2O4", "value": 0},
      {"measurement": "arylsulfonamide 7 (% yield)", "setting": "[1]; 1 mol %, 10 mM Na2S2O4", "value": "(58) %"},
      {"measurement": "TTN arylsulfonamide 7", "setting": "[1]; 10 mol %, 2 mM Na2S2O4", "value": 1},
      {"measurement": "TTN benzosultam 6", "setting": "[1]; 10 mol %, 2 mM Na2S2O4", "value": 0},
      {"measurement": "arylsulfonamide 7 (% yield)", "setting": "[1]; 10 mol %, 2 mM Na2S2O4", "value": "(10) %"},
      {"measurement": "TTN arylsulfonamide 7", "setting": "[1]; 10 mol %, 10 mM Na2S2O4", "value": 6},
      {"measurement": "TTN benzosultam 6", "setting": "[1]; 10 mol %, 10 mM Na2S2O4", "value": 0},
      {"measurement": "arylsulfonamide 7 (% yield)", "setting": "[1]; 10 mol %, 10 mM Na2S2O4", "value": "(60) %"},
      {"measurement": "TTN arylsulfonamide 7", "setting": "[1]; [5]", "value": 0},
      {"measurement": "TTN benzosultam 6", "setting": "[1]; [5]", "value": 0},
      {"measurement": "Yield %", "setting": "[2]; 10 mM 4.1a, 5% hemin, 10 mM Na2S2O4, product 4.2a", "value": 0, "unit": "%"},
      {"measurement": "lactone formation via C—H bond insertion", "setting": "[2]; substrates 4.1a and 4.1b, 10 μM variant or hemin at 5% catalyst loading, 16 h", "value": "not catalyzed"},
      {"measurement": "TTN arylsulfonamide 13", "setting": "[3]; 1 mol %, 2 mM NADPH", "value": 1},
      {"measurement": "TTN benzosultam 9", "setting": "[3]; 1 mol %, 2 mM NADPH", "value": 0},
      {"measurement": "arylsulfonamide 13 (% yield)", "setting": "[3]; 1 mol %, 2 mM NADPH", "value": "(1) %"},
      {"measurement": "TTN arylsulfonamide 13", "setting": "[3]; 1 mol %, 2 mM Na2S2O4", "value": 1},
      {"measurement": "TTN benzosultam 9", "setting": "[3]; 1 mol %, 2 mM Na2S2O4", "value": 4},
      {"measurement": "arylsulfonamide 13 (% yield)", "setting": "[3]; 1 mol %, 2 mM Na2S2O4", "value": "(1) %"},
      {"measurement": "benzosultam 9 (% yield)", "setting": "[3]; 1 mol %, 2 mM Na2S2O4", "value": "(4) %"},
      {"measurement": "TTN arylsulfonamide 13", "setting": "[3]; 1 mol %, 10 mM Na2S2O4", "value": 23},
      {"measurement": "TTN benzosultam 9", "setting": "[3]; 1 mol %, 10 mM Na2S2O4", "value": 61},
      {"measurement": "arylsulfonamide 13 (% yield)", "setting": "[3]; 1 mol %, 10 mM Na2S2O4", "value": "(23) %"},
      {"measurement": "benzosultam 9 (% yield)", "setting": "[3]; 1 mol %, 10 mM Na2S2O4", "value": "(61) %"},
      {"measurement": "TTN arylsulfonamide 13", "setting": "[3]; 1 mol %, reductant None", "value": 0},
      {"measurement": "TTN benzosultam 9", "setting": "[3]; 1 mol %, reductant None", "value": 0},
      {"measurement": "TTN arylsulfonamide 13", "setting": "[3]; 10 mol %, 2 mM Na2S2O4", "value": 0},
      {"measurement": "TTN benzosultam 9", "setting": "[3]; 10 mol %, 2 mM Na2S2O4", "value": 0},
      {"measurement": "TTN arylsulfonamide 13", "setting": "[3]; 10 mol %, 10 mM Na2S2O4", "value": 3},
      {"measurement": "TTN benzosultam 9", "setting": "[3]; 10 mol %, 10 mM Na2S2O4", "value": 4},
      {"measurement": "arylsulfonamide 13 (% yield)", "setting": "[3]; 10 mol %, 10 mM Na2S2O4", "value": "(30) %"},
      {"measurement": "benzosultam 9 (% yield)", "setting": "[3]; 10 mol %, 10 mM Na2S2O4", "value": "(40) %"}
    ]},
    {"molecule": "ABC-CIS: BM3-CIS + C400S (protein, listed as Bacillus megaterium, cytochrome P450NADPH-P-450 reductase precursor, cytochrome P450 (BM3), CYP102A1, BM3-CIS + C400S) TIKEMPQPKTFGELKNLPLLNTDKPVQALMKIADELGEIFKFEAPGRVTRYLSSQRLIKEACDESRFDKNLSQALKFARDFAGDGLVTSWTHEKNWKKAHNILLPSFSQQAMKGYHAMMVDIAVQLVQKWERLNADEHIEVSEDMTRLTLDTIGLCGFNYRFNSFYRDQPHPFIISMVRALDEVMNKLQRANPDDPAYDENKRQFQEDIKVMNDLVDKIIADRKARGEQSDDLLTQMLNGKDPETGEPLDDGNIRYQIITFLIAGHEATSGLLSFALYFLVKNPHVLQKVAEEAARVLVDPVPSYKQVKQLKYVGMVLNEALRLWPTAPAFSLYAKEDTVLGGEYPLEKGDEVMVLIPQLHRDKTVWGDDVEEFRPERFENPSAIPQHAFKPFGNGQRASIGQQFALHEATLVLGMMLKHFDFEDHTNYELDIKETLTLKPKGFVVKAKSKKIPLGGIPSPSTEQSAKKVRKKAENAHNTPLLVLYGSNMGTAEGTARDLADIAMSKGFAPQVATLDSHAGNLPREGAVLIVTASYNGHPPDNAKQFVDWLDQASADEVKGVRYSVFGCGDKNWATTYQKVPAFIDETLAAKGAENIADRGEADASDDFEGTYEEWREHMWSDVAAYFNLDIENSEDNKSTLSLQFVDSAADMPLAKMHGAFSTNVVASKELQQPGSARSTRHLEIELPKEASYQEGDHLGVIPRNYEGIVNRVTARFGLDASQQIRLEAEEEKLAHLPLAKTVSVEELLQYVELQDPVTRTQLRAMAAKTVCPPHKVELEALLEKQAYKEQVLAKRLTMLELLEKYPACEMKFSEFIALLPSIRPRYYSISSSPRVDEKQASITVSVVSGEAWSGYGEYKGIASNYLAELQEGDTITCFISTPQSEFTLPKDPETPLIMVGPGTGVAPFRGFVQARKQLKEQGQSLGEAHLYFGCRSPHEDYLYQEELENAQSEGIITLHTAFSRMPNQPKTYVQHVMEQDGKKLIELLDQGAHFYICGDGSQMAPAVEATLMKSYADVHQVSEADARLWLQQLEEKGRYAKDVWAG", "values": [
      {"measurement": "% ee", "setting": "[4]", "value": 61, "unit": "%"},
      {"measurement": "TTN", "setting": "[4]", "value": 750}
    ]}
  ]
}
